Measured values as given in patent publication US20060148850A1, “4-{'3-(Sulfonylamino) phenyl!'1-(cyclymethyl) piperidin-4-ylidene! methyl}benazmide derivativess as delta opioid receptor ligands for the treatment of pain, anxiety and functional gastrointestinal disorder” (AstraZeneca AB, priority 2003, published 2006).
Like-named read-outs stand apart in the source and are kept apart here.

Experiments:
cloned human δ receptors [1] = biological target: T1, cloned human δ receptors (Homo sapiens, UniProt P41143); assay: Human δ receptor functional assay (GTP[γ]35S binding), high and low receptor expression; format: biochemical
T1 construct: expressed in transfected cells; host or cells: HEK-293S cells
Procedure: Human 293S cells expressing cloned human κ, δ and μ receptors and neomycin resistance are grown in suspension at 37° C. and 5% CO2 in shaker flasks containing calcium-free DMEM10% FBS, 5% BCS, 0.1% Pluronic F-68, and 600 μg/ml geneticin.
Cells are pelleted and resuspended in lysis buffer (50 mM Tris, pH 7.0, 2.5 mM EDTA, with PMSF added just prior to use to 0.1 mM from a 0.1 M stock in ethanol), incubated on ice for 15 min, then homogenized with a polytron for 30 sec. The suspension is spun at 1000 g (max) for 10 min at 4° C. The supernatant is saved on ice and the pellets resuspended and spun as before. The supernatants from both spins are combined and spun at 46,000 g(max) for 30 min. The pellets are resuspended in cold Tris buffer (50 mM Tris/Cl, pH 7.0) and spun again. The final pellets are resuspended in membrane buffer ( 50 mM Tris, 0.32 M sucrose, pH 7.0). Aliquots (1 ml) in polypropylene tubes are frozen in dry ice/ethanol and stored at −70° C. until use. The protein concentrations are determined by a modified Lowry assay with sodium dodecyl sulfate.
The agonist activity of the compounds is measured by determining the degree to which the compounds receptor complex activates the binding of GTP to G-proteins to which the receptors are coupled. In the GTP binding assay, GTP[γ]^35S is combined with test compounds and membranes from HEK-293S cells expressing the cloned human opioid receptors or from homogenised rat or mouse brain. Agonists stimulate GTP[γ]^35S binding in these membranes. The EC50 and Emax values of compounds are determined from dose-response curves. Right shifts of the dose response curve by the delta antagonist naltrindole are performed to verify that agonist activity is mediated through delta receptors. For human […] functional assays, EC50 (low) is measured when the human δ receptors used in the assay were expressed at lower levels in comparison with those used in determining EC50 (high). The Emax values were determined in relation to the standard δ agonist SNC80, i.e., higher than 100% is a compound that have better efficacy than SNC80.
Rat brain membranes are thawed at 37° C., passed 3 times through a 25-gauge blunt-end needle and diluted in the GTPYS binding (50 mM Hepes, 20 mM NaOH, 100 mM NaCl, 1 mM EDTA, 5 mM MgCl2, pH 7.4, Add fresh: 1 mM DTT, 0.1% BSA). 120 μM GDP final is added membranes dilutions. The EC50 and Emax of compounds are evaluated from 10-point dose-response curves done in 300 μl with the appropriate amount of membrane protein (20 μg/well) and 100000-130000 dpm of GTPγ^35S per well (0.11-0.14 nM). The basal and maximal stimulated binding are determined in absence and presence of 3 μM SNC-80. The assay performed on HEK 293s cells stably expressing cloned Delta receptors is done in a slightly different buffer (50 mM Hepes, 20 mM NaOH, 200 mM NaCl, 1 mM EDTA, 5 mM MgCl2, pH 7.4, Add fresh: 0.5% BSA, no DTT) and with a 3 μM final conc. of GDP.

cloned human δ receptors [2] = biological target: T1, cloned human δ receptors; assay: Human δ receptor binding assay (125I-Deltorphin II displacement)
cloned human μ receptors = biological target: T2, cloned human μ receptors (Homo sapiens, UniProt P35372); assay: Human μ receptor binding assay (125I-FK33824 displacement)
T2 construct: expressed in transfected cells; host or cells: Human 293S cells

[3] = biological target: T3, δ receptors in rat brain membranes (Rattus norvegicus, UniProt P33533); assay: Rat brain functional assay (GTPγ35S binding); format: biochemical
T3 construct: membranes from HEK-293S cells expressing the cloned human opioid receptors or from homogenised rat or mouse brain; from tissue; host or cells: rat brain
Procedure: Rat brains are weighed and rinsed in ice-cold PBS (containing 2.5 mM EDTA, pH 7.4). The brains are homogenized with a polytron for 30 sec (rat) in ice-cold lysis buffer (50 mM Tris, pH 7.0,2.5 mM EDTA, with phenylmethylsulfonyl fluoride added just prior use to […] from a 0.5M stock in DMSO:ethanol).
The agonist activity of the compounds is measured by determining the degree to which the compounds receptor complex activates the binding of GTP to G-proteins to which the receptors are coupled. In the GTP binding assay, GTP[γ]^35S is combined with test compounds and membranes from HEK-293S cells expressing the cloned human opioid receptors or from homogenised rat or mouse brain. […] The EC50 and Emax values of compounds are determined from dose-response curves. […] For human a receptor functional assays, EC50 (low) is measured when the human δ receptors used in the assay were expressed at lower levels in comparison with those used in determining EC50 (high). […]
Rat brain membranes are thawed at 37° C., passed 3 times through a 25-gauge blunt-end needle and diluted in the GTPYS binding (50 mM Hepes, 20 mM NaOH, 100 mM NaCl, 1 mM EDTA, 5 mM MgCl2, pH 7.4, Add fresh: 1 mM DTT, 0.1% BSA). […] The EC50 and Emax of compounds are evaluated from 10-point dose-response curves done in 300 μl with the appropriate amount of membrane protein (20 μg/well) and 100000-130000 dpm of GTPγ^35S per well (0.11-0.14 nM). […]

cloned human κ receptors = cloned human κ receptors (Homo sapiens, UniProt P41145); assay: Human κ receptor binding assay (125I-DPDYN displacement); conditions: Table 1
[4] = Table 2, lower expression, relative to SNC80, range over compounds 1,2,4,5, read-out: Human δ %EMax (low)

T1 sequence (P41143 whole entry): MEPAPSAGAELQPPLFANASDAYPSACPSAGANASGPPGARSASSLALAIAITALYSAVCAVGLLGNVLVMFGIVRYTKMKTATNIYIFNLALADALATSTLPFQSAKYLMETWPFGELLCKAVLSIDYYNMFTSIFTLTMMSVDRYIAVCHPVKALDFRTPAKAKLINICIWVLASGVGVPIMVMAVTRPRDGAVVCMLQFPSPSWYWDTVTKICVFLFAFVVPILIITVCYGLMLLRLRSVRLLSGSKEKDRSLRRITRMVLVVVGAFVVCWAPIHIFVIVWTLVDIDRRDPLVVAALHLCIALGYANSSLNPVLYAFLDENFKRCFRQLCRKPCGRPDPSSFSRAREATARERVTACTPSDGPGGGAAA
T2 sequence (P35372 whole entry): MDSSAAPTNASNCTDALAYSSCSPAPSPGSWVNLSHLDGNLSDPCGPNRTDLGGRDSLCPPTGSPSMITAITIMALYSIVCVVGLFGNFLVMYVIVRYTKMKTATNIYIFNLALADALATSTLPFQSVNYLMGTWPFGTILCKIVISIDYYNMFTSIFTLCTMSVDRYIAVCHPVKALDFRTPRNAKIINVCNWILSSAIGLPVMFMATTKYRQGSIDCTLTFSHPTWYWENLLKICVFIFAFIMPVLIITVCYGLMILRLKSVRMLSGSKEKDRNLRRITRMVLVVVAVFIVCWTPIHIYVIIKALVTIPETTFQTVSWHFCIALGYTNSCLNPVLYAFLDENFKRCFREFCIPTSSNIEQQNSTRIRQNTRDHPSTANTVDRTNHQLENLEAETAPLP
T3 sequence (P33533 whole entry): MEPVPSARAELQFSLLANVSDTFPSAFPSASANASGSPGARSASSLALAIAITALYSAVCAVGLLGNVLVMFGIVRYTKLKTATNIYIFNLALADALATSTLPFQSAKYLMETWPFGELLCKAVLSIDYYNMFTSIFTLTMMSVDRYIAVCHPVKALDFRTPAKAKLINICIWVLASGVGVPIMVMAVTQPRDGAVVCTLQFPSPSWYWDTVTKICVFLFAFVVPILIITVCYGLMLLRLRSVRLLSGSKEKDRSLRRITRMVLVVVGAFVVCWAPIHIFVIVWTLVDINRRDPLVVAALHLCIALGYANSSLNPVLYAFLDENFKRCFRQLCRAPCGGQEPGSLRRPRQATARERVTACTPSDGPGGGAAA
cloned human κ receptors, sequence (P41145 whole entry): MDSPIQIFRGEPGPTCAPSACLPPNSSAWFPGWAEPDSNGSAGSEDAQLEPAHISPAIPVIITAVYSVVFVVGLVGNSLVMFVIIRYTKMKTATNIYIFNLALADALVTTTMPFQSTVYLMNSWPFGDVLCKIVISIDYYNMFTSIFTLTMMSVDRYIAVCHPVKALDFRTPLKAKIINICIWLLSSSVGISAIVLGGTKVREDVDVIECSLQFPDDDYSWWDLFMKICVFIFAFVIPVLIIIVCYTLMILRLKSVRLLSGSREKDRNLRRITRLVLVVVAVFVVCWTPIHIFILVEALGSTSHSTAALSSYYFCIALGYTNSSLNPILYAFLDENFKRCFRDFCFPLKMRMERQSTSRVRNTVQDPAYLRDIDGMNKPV

Row | SMILES | EC50 (cloned human δ receptors [1]) [nM] | Emax (cloned human δ receptors [1]; [4]) [%] | IC50 (cloned human δ receptors [2]) [nM] | IC50 (cloned human μ receptors) [nM] | Emax (cloned human δ receptors [1]; Table 1, higher expression, relative to standard δ agonist SNC80, read-out: Human δ % EMax (high)) [%] | EC50 [3] [nM] | Emax ([3]; Table 1, rat brain membranes, relative to SNC80) [%] | IC50 (cloned human κ receptors) [nM]
1 | CCN(CC)C(=O)c1ccc(C(=C2CCN(Cc3cccnc3)CC2)c2cccc(NS(C)(=O)=O)c2)cc1 [Compound 4, N,N-diethyl-4-[[3-[(methylsulfonyl)amino]phenyl][1-(3-pyridinylmethyl)4-piperidinylidene]methyl]-benzamide] | 5.25 to 19.3 | 106 to 126 | 0.18 to 0.35 | 77.9 to 301 |  |  |  | 
2 | CCN(CC)C(=O)c1ccc(C(=C2CCN(Cc3ccccc3)CC2)c2cccc(NS(C)(=O)=O)c2)cc1 [Compound 3, N,N-diethyl-4-[[1-(phenylmethyl)-4-piperidinylidene][3-[(methylsulfonyl)amino]phenyl]methyl]-benzamide] | 0.53 |  | 0.56 | 35 | 99 | 1.32 | 145 | 1050
3 | CCN(CC)C(=O)c1ccc(C(=C2CCN(Cc3cccs3)CC2)c2cccc(NS(C)(=O)=O)c2)cc1 [Compound 1, N,N-diethyl-4-{{3-[(methylsulfonyl)amino]phenyl}[1-(thien-2-ylmethyl)piperidin-4-ylidene]methyl}benzamide] | 5.25 to 19.3 | 106 to 126 | 0.18 to 0.35 | 77.9 to 301 |  |  |  | 
4 | CCN(CC)C(=O)c1ccc(C(=C2CCN(Cc3nccs3)CC2)c2cccc(NS(C)(=O)=O)c2)cc1 [Compound 5] | 5.25 to 19.3 | 106 to 126 | 0.18 to 0.35 | 77.9 to 301 |  |  |  | 
5 | CCN(CC)C(=O)c1ccc(C(=C2CCN(Cc3ccco3)CC2)c2cccc(NS(C)(=O)=O)c2)cc1 [Compound 2, N,N-diethyl-4-[[l-(2-furanylmethyl)-4-piperidinylidene][3-[(methylsulfonyl)amino]phenyl]methyl]-benzamide] | 5.25 to 19.3 | 106 to 126 | 0.18 to 0.35 | 77.9 to 301 |  |  |  | 
